Results reported in ChEMBL document CHEMBL1152205, “Dihydropyrazolopyrimidine inhibitors of K(V)1.5 (I(Kur))” (Bioorg Med Chem Lett, 2008).

Legend:
[1] = target: T1, Potassium voltage-gated channel subfamily A member 5 (Homo sapiens, UniProt P22460); assay: Inhibition of human Kv1.5 channel expressed in Xenopus oocytes at 3 uM by EP voltage clamp technique; assay type: cell-based; conditions: Oocyte
[2] = target: T1, Potassium voltage-gated channel subfamily A member 5; assay: Inhibition of human Kv1.5 channel expressed in mouse L929 cells by EP voltage clamp technique; assay type: cell-based
[3] = target: T1, Potassium voltage-gated channel subfamily A member 5; assay: Inhibition of human Kv1.5 channel expressed in Xenopus oocytes at 10 uM by EP voltage clamp technique; assay type: cell-based; conditions: Oocyte
[4] = Inhibition of L-type calcium channel expressed in HEK293 cells; assay type: cell-based
[5] = target: T1, Potassium voltage-gated channel subfamily A member 5; assay: Inhibition of human Kv1.5 channel expressed in mouse L929 cells at 1 uM by EP voltage clamp technique; assay type: cell-based
[6] = Inhibition of L-type calcium channel ICa at 10 uM
[7] = Selectivity of human Kv1.5 channel over potassium channel IK1
[8] = Inhibition of sodium channel INa at 10 uM by patch clamp technique
[9] = Inhibition of potassium channel IKs at 10 uM
[10] = Selectivity of human Kv1.5 channel over sodium channel INa
[11] = Selectivity of human Kv1.5 channel over potassium channel IKs
Homo sapiens = species on record: Homo sapiens; assay: Selectivity of human Kv1.5 channel over human ERG
[12] = Inhibition of potassium channel IK1 at 10 uM
[13] = Selectivity of human Kv1.5 channel over L-type calcium channel ICa
hERG (KCNH2) = hERG (KCNH2) (Homo sapiens, UniProt Q12809); assay: Inhibition of human ERG at 10 uM
Sequence of hERG (KCNH2) (Q12809 whole entry): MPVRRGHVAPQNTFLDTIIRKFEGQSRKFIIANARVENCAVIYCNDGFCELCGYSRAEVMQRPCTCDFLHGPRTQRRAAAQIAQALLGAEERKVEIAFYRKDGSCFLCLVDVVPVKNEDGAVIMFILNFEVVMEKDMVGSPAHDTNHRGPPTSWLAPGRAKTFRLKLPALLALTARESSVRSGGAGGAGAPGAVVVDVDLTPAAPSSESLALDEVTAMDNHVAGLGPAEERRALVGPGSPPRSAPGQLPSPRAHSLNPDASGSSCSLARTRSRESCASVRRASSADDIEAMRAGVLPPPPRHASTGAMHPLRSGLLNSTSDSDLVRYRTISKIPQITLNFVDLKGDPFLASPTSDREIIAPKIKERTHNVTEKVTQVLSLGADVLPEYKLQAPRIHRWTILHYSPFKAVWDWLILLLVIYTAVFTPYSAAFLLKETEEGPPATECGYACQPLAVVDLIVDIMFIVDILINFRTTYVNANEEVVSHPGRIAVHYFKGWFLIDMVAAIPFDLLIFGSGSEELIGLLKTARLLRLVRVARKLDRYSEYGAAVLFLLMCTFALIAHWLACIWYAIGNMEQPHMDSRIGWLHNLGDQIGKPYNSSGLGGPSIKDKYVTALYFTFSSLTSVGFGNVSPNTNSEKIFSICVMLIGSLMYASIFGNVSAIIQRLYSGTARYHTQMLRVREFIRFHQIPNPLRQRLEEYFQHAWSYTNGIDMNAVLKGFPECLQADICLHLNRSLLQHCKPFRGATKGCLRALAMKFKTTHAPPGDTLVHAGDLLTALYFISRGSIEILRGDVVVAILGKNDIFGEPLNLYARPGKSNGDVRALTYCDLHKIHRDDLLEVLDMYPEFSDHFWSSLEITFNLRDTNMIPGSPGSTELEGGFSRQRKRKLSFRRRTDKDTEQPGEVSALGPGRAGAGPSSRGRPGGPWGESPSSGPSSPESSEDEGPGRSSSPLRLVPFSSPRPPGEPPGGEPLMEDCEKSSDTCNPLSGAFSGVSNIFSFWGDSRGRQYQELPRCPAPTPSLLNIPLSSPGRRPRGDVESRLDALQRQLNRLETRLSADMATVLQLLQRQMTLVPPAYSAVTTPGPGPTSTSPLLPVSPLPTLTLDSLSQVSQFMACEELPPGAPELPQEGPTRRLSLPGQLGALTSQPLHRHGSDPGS

T1 sequence (P22460 whole entry): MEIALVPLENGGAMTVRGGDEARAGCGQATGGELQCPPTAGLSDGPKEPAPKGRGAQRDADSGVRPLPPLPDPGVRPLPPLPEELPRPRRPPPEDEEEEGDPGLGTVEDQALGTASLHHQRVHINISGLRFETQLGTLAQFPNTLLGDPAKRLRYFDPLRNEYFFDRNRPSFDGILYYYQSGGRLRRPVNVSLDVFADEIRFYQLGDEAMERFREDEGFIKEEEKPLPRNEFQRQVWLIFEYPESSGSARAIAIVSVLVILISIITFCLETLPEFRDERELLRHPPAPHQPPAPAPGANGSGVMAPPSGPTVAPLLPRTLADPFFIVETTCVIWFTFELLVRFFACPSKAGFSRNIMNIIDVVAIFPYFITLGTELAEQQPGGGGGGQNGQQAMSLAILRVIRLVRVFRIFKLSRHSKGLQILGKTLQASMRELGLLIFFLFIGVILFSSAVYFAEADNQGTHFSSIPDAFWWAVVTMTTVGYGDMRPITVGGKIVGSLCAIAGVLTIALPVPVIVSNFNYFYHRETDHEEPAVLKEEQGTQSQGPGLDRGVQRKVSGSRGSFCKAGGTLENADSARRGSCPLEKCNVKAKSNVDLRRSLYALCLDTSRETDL

Compound | inhibition [1] | IC50 [2] | also measured
CC1=C(C(=O)N2CCN(c3ccc(F)cc3)CC2)C(c2ccc(C)s2)n2nccc2N1 (centres undefined) | 1% |  | 
CC1=C(C(=O)NCc2ccccc2)C(c2ccc(Cl)c(Cl)c2)n2nccc2N1 (centres undefined) | 62% | 160 nM | 
CC1=C(C(=O)N2CCN(c3ccc(F)cc3)CC2)C(c2ccc(Cl)c(Cl)c2)n2nccc2N1 (centres undefined) | 65% | 120 nM | 
COC[C@H]1CCCN1C(=O)C1=C(C)Nc2ccnn2C1c1ccc(Cl)c(Cl)c1 (some centres undefined) | 39% |  | 
CC1=C(C(=O)N2CCN(c3ccc(F)cc3)CC2)C(c2ccc3ccccc3c2)n2nccc2N1 (centres undefined) | 39% | 650 nM | 
CC1=C(C(=O)N2CCN(c3ccc(F)cc3)CC2)C(c2ccc(Cl)cc2Cl)n2nccc2N1 (centres undefined) | 50% | 280 nM | 
CC1=C(C(=O)N2CCN(c3ccccc3)CC2)C(c2ccc(Cl)c(Cl)c2)n2nccc2N1 (centres undefined) |  | 85 nM | inhibition [3]: 82%
CC1=C(C(=O)N2CCOCC2)C(c2ccc(Cl)c(Cl)c2)n2nccc2N1 (centres undefined) | 17% |  | 
Cc1nc2ccnn2c(-c2ccc(Cl)c(Cl)c2)c1C(=O)N1CCCCC1 | 17% |  | 
CC1=C(C(=O)N2CCN(c3ccc(F)cc3)CC2)C(c2ccc(C)c(C)c2)n2nccc2N1 (centres undefined) | 34% | 750 nM | 
CCCCCN(CCCCC)C(=O)C1=C(C)Nc2ccnn2C1c1ccc(Cl)c(Cl)c1 (centres undefined) | 69% | 580 nM | 
CC1=C(C(=O)N2CCN(c3ccc(F)cc3)CC2)C(c2cc(C)cc(C)c2)n2nccc2N1 (centres undefined) | 58% | 420 nM | 
CC1=C(C(=O)N2CCN(c3ccc(F)cc3)CC2)C(c2cccs2)n2nccc2N1 (centres undefined) | 7% |  | 
COc1ccccc1C1C(C(=O)N2CCN(c3ccc(F)cc3)CC2)=C(C)Nc2ccnn21 (centres undefined) | 2% |  | 
CC1=C(C(=O)N2CCN(c3ccc(F)cc3)CC2)C(c2ccccc2[N+](=O)[O-])n2nccc2N1 (centres undefined) | 4% |  | 
CC1=C(C(=O)N2CCC2)C(c2ccc(Cl)c(Cl)c2)n2nccc2N1 (centres undefined) | 52% | 970 nM | 
CC1=C(C(=O)Nc2cccnc2)C(c2ccc(Cl)c(Cl)c2)n2nccc2N1 (centres undefined) |  |  | inhibition [3]: 9%
CCOC(=O)C1=C(C)Nc2ccnn2C1c1cccc(Cl)c1Cl (centres undefined) |  | 1100 nM | IC50 [4]: 9380 nM
CC1=C(C(=O)NCCc2ccccc2)C(c2ccc(Cl)c(Cl)c2)n2nccc2N1 (centres undefined) |  | 100 nM | inhibition [3]: 84%
CC1=C(C(=O)Nc2ccccc2)C(c2ccc(Cl)c(Cl)c2)n2nccc2N1 (centres undefined) |  | 170 nM | inhibition [3]: 83%
COC[C@@H]1CCCN1C(=O)C1=C(C)Nc2ccnn2C1c1ccc(Cl)c(Cl)c1 (some centres undefined) | 88% | 200 nM | 
COc1cccc(C2C(C(=O)N3CCN(c4ccc(F)cc4)CC3)=C(C)Nc3ccnn32)c1 (centres undefined) | 30% |  | 
CCCNC(=O)C1=C(C)Nc2ccnn2C1c1ccc(Cl)c(Cl)c1 (centres undefined) |  | 490 nM | 

Compound | inhibition [1] | IC50 [2] | also measured
CC1=C(C(=O)N2CCN(c3ccc(F)cc3)CC2)[C@H](c2cccc(Cl)c2Cl)n2nccc2N1 | 2% |  | 
CC1=C(C(=O)N2CCN(c3ccc(F)cc3)CC2)C(c2cc(Cl)ccc2Cl)n2nccc2N1 (centres undefined) | 41% | 820 nM | 
COc1ccc(C2C(C(=O)N3CCN(c4ccc(F)cc4)CC3)=C(C)Nc3ccnn32)cc1 (centres undefined) | 11% |  | 
CCCCN(CCCC)C(=O)C1=C(C)Nc2ccnn2C1c1ccc(Cl)c(Cl)c1 (centres undefined) | 45% | 310 nM | 
COC(=O)C1=C(C)NC(C)=C(C(=O)OC)C1c1ccccc1[N+](=O)[O-] [NIFEDIPINE] |  | 6100 nM | IC50 [4]: 60 nM
CC1=C(C(=O)N2CCCC2)C(c2ccc(Cl)c(Cl)c2)n2nccc2N1 (centres undefined) | 67% | 660 nM | 
CC1=C(C(=O)N2CCN(c3ccc(F)cc3)CC2)C(c2cccc3c2OCO3)n2nccc2N1 (centres undefined) | 18% |  | 
CC1=C(C(=O)N2CCN(c3ccc(F)cc3)CC2)C(c2ccc([N+](=O)[O-])cc2)n2nccc2N1 (centres undefined) | 24% |  | 
CC1=C(C(=O)N2CCN(c3ccc(F)cc3)CC2)C(c2cccnc2)n2nccc2N1 (centres undefined) | 3% |  | 
CC1=C(C(=O)N2CCN(c3ccc(F)cc3)CC2)C(c2ccc(Cl)s2)n2nccc2N1 (centres undefined) | 51% | 230 nM | 
CC1=C(C(=O)N2CCN(c3ccc(F)cc3)CC2)C(c2ccc(C)o2)n2nccc2N1 (centres undefined) | 7% |  | 
CC1=C(C(=O)N2CCN(C)CC2)C(c2ccc(Cl)c(Cl)c2)n2nccc2N1 (centres undefined) | 5% |  | 
CC1=C(C(=O)N2CCN(c3ccc(F)cc3)CC2)C(c2cc(Cl)cc(Cl)c2)n2nccc2N1 (centres undefined) | 62% | 140 nM | 
CC1=C(C(=O)N2CCN(c3ccc(F)cc3)CC2)C(c2ccc(C)cc2)n2nccc2N1 (centres undefined) | 27% |  | 
CC1=C(C(=O)N2CCN(c3ccc(F)cc3)CC2)C(c2cnc3ccccc3c2)n2nccc2N1 (centres undefined) | 17% |  | 
CC1=C(C(=O)N2CCN(c3ccc(F)cc3)CC2)C(c2sc3ccccc3c2C)n2nccc2N1 (centres undefined) | 56% | 200 nM | 
CCCCCNC(=O)C1=C(C)Nc2ccnn2C1c1ccc(Cl)c(Cl)c1 (centres undefined) | 48% | 590 nM | 
CC1=C(C(=O)N2CCN(c3ccc(F)cc3)CC2)C(c2ccccc2C)n2nccc2N1 (centres undefined) | 37% |  | inhibition [5]: 48%
CCN(CC)C(=O)C1=C(C)Nc2ccnn2C1c1ccc(Cl)c(Cl)c1 (centres undefined) | 61% | 440 nM | 
CC1=C(C(=O)N2CCN(C3CCCCC3)CC2)C(c2ccc(Cl)c(Cl)c2)n2nccc2N1 (centres undefined) | 17% |  | 
COc1cccc(C2C(C(=O)N3CCN(c4ccc(F)cc4)CC3)=C(C)Nc3ccnn32)c1OC (centres undefined) | 7% |  | 
CC1=C(C(=O)N2CCN(c3ccc(F)cc3)CC2)C(c2ccco2)n2nccc2N1 (centres undefined) | 1% |  | 
CC1=C(C(=O)N2CCN(c3ccc(F)cc3)CC2)[C@@H](c2cccc(Cl)c2Cl)n2nccc2N1 | 67% | 160 nM | inhibition [6]: 55%; fold change (FC) [7]: > 50; inhibition [8]: 14%; inhibition [9]: 7%; fold change (FC) [10]: > 50; fold change (FC) [11]: > 50; fold change (FC) (Homo sapiens): > 50; inhibition [12]: 1%; fold change (FC) [13]: > 50; inhibition at 10 µM (hERG (KCNH2)): 41%

Compound | inhibition [1] | IC50 [2] | also measured
CC1=C(C(=O)N2CCN(c3ccc(F)cc3)CC2)C(c2sccc2C)n2nccc2N1 (centres undefined) | 29% |  | 
CCCCNC(=O)C1=C(C)Nc2ccnn2C1c1ccc(Cl)c(Cl)c1 (centres undefined) | 56% | 440 nM | 
CC1=C(C(=O)N2CCCCCC2)C(c2ccc(Cl)c(Cl)c2)n2nccc2N1 (centres undefined) | 90% | 190 nM | 
CC1=C(C(=O)N2CCN(c3ccc(F)cc3)CC2)[C@@H](c2ccc(Cl)c(Cl)c2)n2nccc2N1 | 72% | 70 nM | inhibition [6]: 59%; fold change (FC) [7]: > 50; inhibition [8]: 42%; inhibition [9]: 21%; fold change (FC) [10]: > 50; fold change (FC) [11]: > 50; fold change (FC) (Homo sapiens): > 50; inhibition [12]: 3%; fold change (FC) [13]: > 50; inhibition at 10 µM (hERG (KCNH2)): 69%
CC1=C(C(=O)N2CCN(c3ccc(F)cc3)CC2)C(c2ccccn2)n2nccc2N1 (centres undefined) | 3% |  | 
CC1=C(C(=O)N2CCN(c3ccc(F)cc3)CC2)C(c2ccc(Cl)cc2)n2nccc2N1 (centres undefined) | 42% | 440 nM | 
CC1=C(C(=O)N2CCCCC2)C(c2ccc(Cl)c(Cl)c2)n2nccc2N1 (centres undefined) | 77% | 90 nM | 
CC1=C(C(=O)N2CCN(c3ccc(F)cc3)CC2)C(c2cccc(Cl)c2)n2nccc2N1 (centres undefined) | 68% | 190 nM | 
CC1=C(C(=O)N2CCN(c3ccc(F)cc3)CC2)C(c2cc3ccccc3o2)n2nccc2N1 (centres undefined) | 33% | 160 nM | 
CC1=C(C(=O)N2CCN(c3ccc(F)cc3)CC2)C(c2cccc(C)c2)n2nccc2N1 (centres undefined) | 57% | 540 nM | 
CC1=C(C(=O)N2CCN(c3ccc(F)cc3)CC2)C(c2ccccc2Cl)n2nccc2N1 (centres undefined) | 30% |  | 
CC1=C(C(=O)N2CCN(c3ccc(F)cc3)CC2)C(c2ccc(C#N)cc2)n2nccc2N1 (centres undefined) | 14% |  | 
CC1=C(C(=O)N2CCN(c3ccc(F)cc3)CC2)[C@H](c2ccc(Cl)c(Cl)c2)n2nccc2N1 | 19% |  | 
COc1ccc(C2C(C(=O)N3CCN(c4ccc(F)cc4)CC3)=C(C)Nc3ccnn32)cc1OC (centres undefined) | 1% |  | 
CC1=C(C(=O)N2CCN(c3ccc(F)cc3)CC2)C(c2ccc3c(c2)OCO3)n2nccc2N1 (centres undefined) | 26% |  | 
Cc1nc2ccnn2c(-c2cccc(Cl)c2Cl)c1C(=O)N1CCN(c2ccc(F)cc2)CC1 | 17% |  | 
CC1=C(C(=O)N2CCC(c3ccccc3)CC2)C(c2ccc(Cl)c(Cl)c2)n2nccc2N1 (centres undefined) | 59% | 159 nM | 
CC1=C(C(=O)N2CCN(c3ccc(F)cc3)CC2)C(c2cccc([N+](=O)[O-])c2)n2nccc2N1 (centres undefined) | 15% |  | 
CC1=C(C(=O)N2CCN(c3ccc(F)cc3)CC2)C(c2cccc(Cl)c2Cl)n2nccc2N1 (centres undefined) | 72% | 160 nM | 
CCCN(CCC)C(=O)C1=C(C)Nc2ccnn2C1c1ccc(Cl)c(Cl)c1 (centres undefined) | 72% | 70 nM | 
CC1=C(C(=O)N2CCN(c3ccc(F)cc3)CC2)C(c2ccc3ccccc3n2)n2nccc2N1 (centres undefined) | 29% |  | 
CC1=C(C(=O)N2CCN(c3ccc(F)cc3)CC2)C(c2cccc(C#N)c2)n2nccc2N1 (centres undefined) | 11% |  | 
CC1=C(C(=O)N2CCN(c3ccc(F)cc3)CC2)C(c2ccccc2)n2nccc2N1 (centres undefined) | 24% |  | 
